Assay results reported in ChEMBL document CHEMBL3045574, “Safening Effects of 1, 8-Naphthalic Anhydride in Corn Plants Treated with Bensulfuron-methyl and Imazaquin” (J Pestic Sci, 1997).
Active and inactive are the calls of the source. No cut-off for these calls is given here.

Experiments:
[1] = tested on: Zea mays; test: Effect on pyruvate content in Zea mays (maize) endosperms assessed per gram of fresh weight at 0.2 % w/w after 10 days (reference value: 11.4 umol); format: functional
[2] = tested on: Zea mays; test: Increase of acetolactate synthase activity in Zea mays (maize) at 0.2 % w/w after 15 min relative to control; format: functional
[3] = tested on: Zea mays; test: Protection against bensulfuron-methyl-induced growth inhibition of Zea mays (maize) assessed as safening index at 0.05 to 0.4 % w/w treated 1 to 14 days before bensulfuron-methyl challenge measured after 3 weeks relative to untreated control; format: functional
[4] = tested on: Zea mays; test: Effect on pyruvate content in Zea mays (maize) roots assessed per gram of fresh weight at 0.2 % w/w after 10 days (reference value: 13.3 umol); format: functional
[5] = tested on: Zea mays; test: Increase of acetolactate synthase activity in Zea mays (maize) root; format: functional
[6] = tested on: Zea mays; test: Decrease of bensulfuron-methyl-induced increase of pyruvate content in Zea mays (maize) assessed per gram of fresh weight at 0.2 % w/w after 10 days; format: functional, organism-based
[7] = tested on: Zea mays; test: Protection against imazaquin-induced growth inhibition of Zea mays (maize) assessed as safening index at 0.05 to 0.4 % w/w treated 1 to 14 days before imazaquin challenge measured after 3 weeks relative to untreated control; format: functional
[8] = tested on: Zea mays; test: Decrease of imazaquin-induced increase of pyruvate content in Zea mays (maize) assessed per gram of fresh weight at 0.2 % w/w after 10 days; format: functional, organism-based
[9] = tested on: Zea mays; test: Increase of acetyl CoA carboxylase activity in Zea mays (maize) at 0.2 % w/w after 15 min relative to control; format: functional
[10] = tested on: Zea mays; test: Effect on pyruvate content in Zea mays (maize) embryos assessed per gram of fresh weight at 0.2 % w/w after 10 days (reference value: 8.5 umol); format: functional
[11] = tested on: Zea mays; test: Increase of acetolactate synthase activity in Zea mays (maize) shoot; format: functional
[12] = tested on: Zea mays; test: Effect on pyruvate content in Zea mays (maize) shoot assessed per gram of fresh weight at 0.2 % w/w after 10 days (reference value: 18.4 umol); format: functional
[13] = molecular target: T1, Acetolactate synthase (Zea mays, UniProt Q41768+Q41769); test: Inhibition of Zea mays (maize) acetolactate synthase; format: protein assay
T1 sequence (Q41768 whole entry): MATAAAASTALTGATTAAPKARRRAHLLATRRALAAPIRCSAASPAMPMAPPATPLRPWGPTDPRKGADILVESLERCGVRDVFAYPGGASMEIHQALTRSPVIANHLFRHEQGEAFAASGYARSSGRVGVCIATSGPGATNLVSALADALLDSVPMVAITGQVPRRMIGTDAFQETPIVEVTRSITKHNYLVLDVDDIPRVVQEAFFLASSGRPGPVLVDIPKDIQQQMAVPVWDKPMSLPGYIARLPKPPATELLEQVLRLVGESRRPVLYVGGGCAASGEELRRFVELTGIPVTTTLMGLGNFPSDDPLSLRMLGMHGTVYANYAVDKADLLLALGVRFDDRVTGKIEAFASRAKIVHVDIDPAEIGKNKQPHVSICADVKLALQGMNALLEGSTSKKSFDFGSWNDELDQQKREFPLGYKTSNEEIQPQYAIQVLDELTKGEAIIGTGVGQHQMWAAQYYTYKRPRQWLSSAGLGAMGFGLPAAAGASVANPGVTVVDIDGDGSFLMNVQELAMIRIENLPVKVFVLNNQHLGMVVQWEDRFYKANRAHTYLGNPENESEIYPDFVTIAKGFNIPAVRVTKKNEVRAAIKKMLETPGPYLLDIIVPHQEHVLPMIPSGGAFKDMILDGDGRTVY
T1 sequence (Q41769 whole entry): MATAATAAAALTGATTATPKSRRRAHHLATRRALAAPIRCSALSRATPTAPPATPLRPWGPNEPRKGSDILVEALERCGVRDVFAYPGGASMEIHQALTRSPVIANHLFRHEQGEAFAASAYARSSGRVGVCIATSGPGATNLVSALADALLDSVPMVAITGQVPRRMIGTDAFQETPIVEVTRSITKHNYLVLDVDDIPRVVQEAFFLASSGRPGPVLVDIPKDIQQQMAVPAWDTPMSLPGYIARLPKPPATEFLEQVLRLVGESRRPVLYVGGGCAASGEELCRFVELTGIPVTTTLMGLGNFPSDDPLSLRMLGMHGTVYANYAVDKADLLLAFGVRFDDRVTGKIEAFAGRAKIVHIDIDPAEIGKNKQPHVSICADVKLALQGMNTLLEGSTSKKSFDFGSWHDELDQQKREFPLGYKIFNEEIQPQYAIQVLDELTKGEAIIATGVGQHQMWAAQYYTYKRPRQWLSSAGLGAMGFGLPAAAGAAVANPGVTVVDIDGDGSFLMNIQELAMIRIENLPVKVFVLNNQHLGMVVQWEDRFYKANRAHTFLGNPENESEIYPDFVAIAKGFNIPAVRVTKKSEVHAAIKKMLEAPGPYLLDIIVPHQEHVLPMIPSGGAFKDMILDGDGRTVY

Row | Compound | Activity [1] [µmol] | Activity [2] [%] | Ratio [3] | Activity [4] [µmol] | Activity [5] [%] | Activity [6] | Ratio [7] | Activity [8] | Activity [9] [%] | Activity [10] [µmol] | Activity [11] [%] | Activity [12] [µmol] | I50 [13] [µM]
1 | O=C1OC(=O)c2cccc3cccc1c23 [1,8-NAPHTHALIC ANHYDRIDE] | 11.2 | 31.9 | 303 | 13 | 30 | Active | 5.1 | Active | 216 | 8 | 24 | 16.2 | –
2 | COC(=O)c1ccccc1CS(=O)(=O)NC(=O)Nc1nc(OC)cc(OC)n1 [BENSULFURON METHYL] | – | – | – | – | – | – | – | – | – | – | – | – | 0.2
3 | CC(C)C1(C)N=C(c2nc3ccccc3cc2C(=O)O)NC1=O (centres undefined) [IMAZAQUIN] | – | – | – | – | – | – | – | – | – | – | – | – | 11.8
